Measurements published in PubChem BioAssay (NCI).
“And” between values parts separate entries of the source, which are not always exact repeats. Equal entries are not always repeated.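 Dose response: 5 concentrations. Exposure: 48 h. Format: 96-well plates. Endpoint: linear interpolation; highest concentration if not reached. Abbreviation: GI50, concentration required for 50% inhibition of growth. The concentration for full growth arrest is given as TGI.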

What was measured:
Experiment in all cases: NCI-60 cell line screen, 48 h
[1] = test system: SNB-78 CNS
[2] = test system: HOP-18 NSCLC
[3] = test system: DLD-1 colon
[4] = test system: LXFL 529 NSCLC
[5] = test system: RXF-631 renal
[6] = test system: KM20L2 colon
[7] = test system: T-47D breast
[8] = test system: MDA-N
[9] = test system: XF 498 CNS

Q: How did the TGI [1] turn out when `CCOC(=O)C1(Cc2ccccc2)CCCCCN1` (stereo not drawn) was run?
A: > 100 µM

Q: And the TGI [2]?
A: > 100 µM

Q: What about the TGI [3] of the same molecule?
A: > 100 µM

Q: What about the TGI [4] of the same molecule?
A: > 100 µM

Q: What about the TGI [5] of the same molecule?
A: > 100 µM

Q: What about the TGI [6] of the same molecule?
A: > 100 µM

Q: Which GI50 [7] does the source give for `COc1ccc2c(Nc3ccc(NS(C)(=O)=O)cc3)c3ccccc3nc2c1` here?
A: 0.34 µM

Q: And the TGI [7]?
A: 3.14 µM

Q: For `COc1cc(/C=C2\CC3C4CC=C5C[C@@H](OC(C)=O)CC[C@]5(C)C4CC[C@]3(C)C2=O)ccc1OCCCn1ccnc1` (stereo partly drawn), which GI50 [7] is on record?
A: 19.8 µM

Q: And the TGI [7]?
A: > 50 µM

Q: What does the source list for `NC(=O)c1cc(Br)cc(C2CCCCC2)c1O`?
A: GI50 [7]: 11.5 µM; TGI [7]: 27 µM

Q: What does the source list for `O=C1CSC(/C(=C\c2ccc(Cl)cc2)c2nc3ccccc3[nH]2)=N1`?
A: TGI [8]: 37.6 µM; TGI [1]: > 100 µM; TGI [3]: 32.5 µM; TGI [9]: 3.01 µM; TGI [4]: 35.2 µM; TGI [7]: 31.7 µM; TGI [6]: 52.1 µM

Q: What does the source list for `COc1ccc(C(N)=O)cc1N=NN(C)C`?
A: TGI [2]: > 100 µM; TGI [3]: > 100 µM; TGI [4]: > 100 µM; TGI [6]: > 100 µM

Q: Which results are given for `COC1CC2C=C(C)/C=C/C=C/C(=O)NC(c3ccccc3)C/C=C/CCC(O)CC(=O)C2=C1O` (stereo not drawn)?
A: GI50 [7]: 0.264 µM; TGI [7]: 0.871 µM

Q: Which results are given for `COC(=O)c1c2c(c(C)[n+]([O-])c1C)C(=O)C=C(NCc1ccc(F)c(F)c1)C2=O`?
A: GI50 [7]: 0.127 µM; TGI [7]: 1.02 µM

Q: How did the GI50 [7] turn out when `CCN1C(=S)N(CC)C2C1NC(=S)N2/N=C/C=C/c1ccccc1` (stereo not drawn) was run?
A: 3.55 µM

Q: And the TGI [7]?
A: 18.2 µM

Q: Which results are given for `C=C=C(CC)C(C(=O)OC)N(CC)CC` (stereo not drawn)?
A: TGI [1]: > 100 µM; TGI [2]: > 100 µM; TGI [3]: > 100 µM; TGI [9]: > 100 µM; TGI [4]: > 100 µM; TGI [5]: > 100 µM; TGI [6]: > 100 µM

Q: How did the TGI [1] turn out when `COc1ccc2c(c1OC)C1=C(C2=O)c2cc3c(cc2CCN1)OCO3` was run?
A: > 100 µM

Q: What about the TGI [2] of the same molecule?
A: > 100 µM

Q: And the TGI [3]?
A: > 100 µM

Q: And the TGI [9]?
A: 87.2 µM

Q: And the TGI [4]?
A: > 100 µM

Q: What about the TGI [6] of the same molecule?
A: 41 µM

Q: For `COc1cc2noc(-c3ccccc3)c2cc1OC`, which TGI [1] is on record?
A: > 100 µM

Q: And the TGI [2]?
A: > 100 µM

Q: And the TGI [3]?
A: > 100 µM

Q: What about the TGI [4] of the same molecule?
A: > 100 µM

Q: What about the TGI [5] of the same molecule?
A: > 100 µM

Q: What about the TGI [6] of the same molecule?
A: > 100 µM

Q: For `CN1NC2(CCCCC2)ON=C1c1ccccc1`, which TGI [1] is on record?
A: > 100 µM

Q: What about the TGI [2] of the same molecule?
A: > 100 µM

Q: And the TGI [3]?
A: > 100 µM

Q: And the TGI [6]?
A: > 100 µM

Q: How did the GI50 [7] turn out when `Cc1sc(C)c(Cc2c(C)sc(C)c2CCl)c1CCl` was run?
A: > 100 µM

Q: What about the TGI [7] of the same molecule?
A: > 100 µM

Q: `COCC(=O)CP(=O)(OC)OC` was tested. Which TGI [1] did it give?
A: > 100 µM

Q: And the TGI [9]?
A: > 100 µM

Q: And the TGI [4]?
A: > 100 µM

Q: How did the GI50 [7] turn out when `Cc1cc(C)c(C[N+](C)(C)C)c(C)c1C` was run?
A: 0.292 µM

Q: What about the TGI [7] of the same molecule?
A: 9.92 µM

Q: Which results are given for `O=c1nc(Nc2cccc(Cl)c2)oc2cc(Cl)oc(=O)c12`?
A: GI50 [7]: 5.29 µM; TGI [7]: 27.1 µM

Q: What does the source list for `O=C(O)/C(=C/c1c(O)ccc2ccccc12)c1csc(-c2nc(/C(=C\c3c(O)ccc4ccccc34)C(=O)O)cs2)n1`?
A: TGI [1]: 34.7 µM; TGI [3]: 35.5 µM; TGI [4]: 29.8 µM; TGI [6]: 50.6 µM

Q: `C=C1C(=O)OC2CC1C(O)C/C(C)=C/CC/C(C)=C/C(O)CC2C` (stereo not drawn) was tested. Which TGI [8] did it give?
A: 9.53 µM

Q: And the TGI [7]?
A: 4.48 µM

Q: For `COc1c(C(=O)O)oc2c(OC)cccc12`, which TGI [1] is on record?
A: > 100 µM

Q: What about the TGI [2] of the same molecule?
A: > 100 µM

Q: And the TGI [4]?
A: > 100 µM

Q: With `OCC1OC(n2ccc3c(NO)ncnc32)C(O)C1O` (stereo not drawn) as the molecule, how does the GI50 [7] read?
A: 0.169 µM

Q: And the TGI [7]?
A: 1.96 µM

Q: `COc1cc2c3c(c1)c1cc(OC)c(OC)cc1c[n+]3CC2` was tested. Which GI50 [8] did it give?
A: > 100 µM

Q: And the TGI [8]?
A: 50 µM and > 100 µM

Q: And the GI50 [7]?
A: 6.74 µM

Q: And the TGI [7]?
A: 34.2 µM and 72.4 µM

Q: For `CN1c2ccccc2N(C)C2C1N(C)c1ccccc1N2C` (stereo not drawn), which TGI [1] is on record?
A: > 100 µM

Q: And the TGI [3]?
A: 62.6 µM

Q: What about the TGI [9] of the same molecule?
A: 21.7 µM

Q: What about the TGI [4] of the same molecule?
A: > 100 µM

Q: And the TGI [5]?
A: > 100 µM

Q: What about the TGI [6] of the same molecule?
A: > 100 µM

Q: Which TGI [8] does the source give for `CN1CCCN(C)C1c1cc([N+](=O)[O-])ccc1O` here?
A: > 100 µM

Q: What about the TGI [7] of the same molecule?
A: > 100 µM

Q: Which TGI [8] does the source give for `C1CSCCCSCCSCCCSC1` here?
A: > 100 µM

Q: And the TGI [7]?
A: > 100 µM

Q: What does the source list for `C#CC1(O)C(COP(=O)(O)OC2CC(n3cc(F)c(=O)[nH]c3=O)OC2CO)OC(n2ccc(N)nc2=O)C1O` (stereo not drawn)?
A: GI50 [7]: < 0.0157 µM; TGI [7]: > 51.7 µM

Q: For `O=c1cc2ccccc2nn1Cc1ccccc1Cl`, which TGI [1] is on record?
A: > 100 µM

Q: And the TGI [2]?
A: > 100 µM

Q: What about the TGI [3] of the same molecule?
A: > 100 µM

Q: And the TGI [9]?
A: > 100 µM

Q: What about the TGI [6] of the same molecule?
A: > 100 µM

Q: What does the source list for `Cc1nc2c(n1C(C)(C)C)C(=O)c1ccccc1C2=O`?
A: TGI [1]: > 100 µM; TGI [3]: > 100 µM; TGI [9]: > 100 µM; TGI [4]: > 100 µM; TGI [6]: > 100 µM

Q: Which results are given for `CC1(C)OC(=O)C=C([O-])O1.CC1(C)OC(=O)C=C([O-])O1.O=S(=O)([O-])c1ccc([O-])c2ncccc12.O=S(=O)([O-])c1ccc([O-])c2ncccc12.[Ti+4]`?
A: GI50 [1]: > 100 µM; TGI [1]: > 100 µM; GI50 [2]: 26 µM; TGI [2]: > 100 µM; GI50 [3]: > 100 µM; TGI [3]: > 100 µM; GI50 [4]: 67.1 µM; TGI [4]: > 100 µM; GI50 [6]: 43.3 µM; TGI [6]: > 100 µM

Q: With `CC(C)c1ccc(C(=O)Nc2sc3c(c2C#N)CCC(=O)C3)cc1` as the molecule, how does the GI50 [7] read?
A: 0.263 µM

Q: What about the TGI [7] of the same molecule?
A: 1.48 µM

Q: With `NNc1cccc(/C=C/c2ccccc2)cc1=O` as the molecule, how does the GI50 [7] read?
A: 5.36 µM

Q: What about the TGI [7] of the same molecule?
A: 92.5 µM

Q: How did the GI50 [7] turn out when `Cn1ncc2c(N)nc(N3CCCCC3)nc21` was run?
A: 3.75 µM

Q: What about the TGI [7] of the same molecule?
A: 34.6 µM

Q: What does the source list for `CC(C)c1ccc(/C(C(=O)O)=C(\O)C(=O)O)cc1`?
A: TGI [8]: > 100 µM; TGI [7]: > 100 µM

Q: Which results are given for `CCOC(=O)c1[nH]c(-c2ccc(Cl)cc2)cc1-c1cccnc1`?
A: GI50 [7]: 0.612 µM; TGI [7]: > 100 µM

Q: Which GI50 [7] does the source give for `COCCOC(=O)NC(=O)Nc1ccc(/C(=N/O)c2ccc(Cl)cc2)cc1` here?
A: 8.82 µM

Q: What about the TGI [7] of the same molecule?
A: 50.5 µM

Q: Which TGI [7] does the source give for `CCOC(=O)C(CO)c1nc2c([nH]c1=O)c(=O)n(C)c(=O)n2C` (stereo not drawn) here?
A: 60.8 µM

Q: Which GI50 [7] does the source give for `Cc1nc2sc(C(=O)Nc3cccc4ccccc34)c(N)c2cc1C(=O)c1ccccc1` here?
A: 3.64 µM

Q: And the TGI [7]?
A: > 50 µM

Q: How did the GI50 [7] turn out when `O=C(c1ccc2ncc(-c3nc(NC4CC4)ncc3F)n2c1)N1CCOCC1` was run?
A: 2 µM

Q: And the TGI [7]?
A: 7.49 µM

Q: With `C[C@]1(CO)[C@H]2CC[C@@]34C=C[C@@](CO)(CC[C@H]3[C@]2(C)CC[C@H]1O)C4` as the molecule, how does the TGI [8] read?
A: > 100 µM

Q: What about the TGI [7] of the same molecule?
A: 84.3 µM

Q: With `COc1ccc(/C=C/c2nc(NCCCN(C)C)c3ccccc3n2)cc1` as the molecule, how does the GI50 [7] read?
A: 1.81 µM

Q: And the TGI [7]?
A: 3.61 µM

Q: For `CC(C)(C)NCc1cc(C(C)(C)C)cc(-c2ccc(Cl)cc2)c1O`, which TGI [8] is on record?
A: 31.4 µM

Q: How did the TGI [8] turn out when `CCCCNN` was run?
A: > 100 µM

Q: And the TGI [7]?
A: > 100 µM

Q: `COc1ccc(-c2cc(/C=C3\C(=O)Nc4ccc(Cl)cc43)[nH]n2)cc1` was tested. Which GI50 [7] did it give?
A: 3.62 µM

Q: And the TGI [7]?
A: 14.6 µM

Q: With `CCC(=O)C(C)C1=Nc2nnc(CCCCCCCc3nnc4n3C(=O)C(C(C)C(=O)CC)=N4)n2C1=O` (stereo not drawn) as the molecule, how does the TGI [2] read?
A: > 100 µM

Q: What about the TGI [9] of the same molecule?
A: > 100 µM

Q: And the TGI [4]?
A: > 100 µM

Q: What about the TGI [6] of the same molecule?
A: > 100 µM
